Experimental data as given in PMC8994671 (ACS infectious diseases, 2017).
≈ marks a conversion by molar mass, not a printed value. Read-outs that look alike come from different tables or passages of the source.

Legend:
C. neoformans = assay: In vitro antifungal susceptibility testing; format: cell-based, Cryptococcus neoformans; details: for MIC: Cryptococcus neoformans, read-out: C. neoformans MIC; for C. neoformans MIC: Table 1, highest value of at least three biological replicates
[1] = tested on: calmodulin-dependent localization of Crz1; details: assay validation; cited from earlier work
C. albicans [2] = details: cited from earlier work
C. albicans [3] = assay: In vitro antifungal susceptibility testing; format: cell-based; details: Candida albicans, SC5314, read-out: C. albicans MIC
[4] = tested on: calmodulin-dependent localization of Crz1; assay: Crz1 nuclear translocation assay; format: cell-based, Cryptococcus neoformans; details: shift to 37°C

MIC (C. neoformans)	Compound	C. neoformans MIC (C. neoformans)	other results
25 µg/mL (≈ 78.4 µM)	CN(C)CCCN1c2ccccc2Sc2ccc(Cl)cc21 [Chlorpromazine (3), Chlorpromazine]	–	–
–	CC/C(=C(\c1ccccc1)c1ccc(OCCN(C)C)cc1)c1ccccc1 [tamoxifen]	–	Effect on nuclear localization of Crz1 [1]: reduce nuclear localization of Crz1
8 µg/mL (≈ 18.3 µM)	OCCN1CCN(CCCN2c3ccccc3Sc3ccc(C(F)(F)F)cc32)CC1 [Fluphenazine (10), Fluphenazine]	8 µg/mL	–
64 µg/mL (≈ 225 µM)	CN(C)CCCN1c2ccccc2Sc2ccccc21 [Promazine (2), Promazine]	–	–
64 µg/mL (≈ 171 µM)	CN1CCN(CCCN2c3ccccc3Sc3ccc(Cl)cc32)CC1 [Prochlorperazine (7), Prochlorperazine]	–	–
–	C=CC[C@@H]1/C=C(\C)C[C@H](C)C[C@H](OC)[C@H]2O[C@@](O)(C(=O)C(=O)N3CCCC[C@H]3C(=O)O[C@H](/C(C)=C/[C@@H]3CC[C@@H](O)[C@H](OC)C3)[C@H](C)[C@@H](O)CC1=O)[C@H](C)C[C@@H]2OC [FK506]	–	Effect on nuclear localization of Crz1 [1]: reduce nuclear localization of Crz1
–	OC(Cn1cncn1)(Cn1cncn1)c1ccc(F)cc1F [FLU, Fluconazole]	–	C. albicans MIC (C. albicans [2]; strain SC5314): 0.25 µg/mL; C. albicans MIC (C. albicans [2]; strain TWO7229): 0.25 µg/mL; C. albicans MIC (C. albicans [2]; strain TWO7230): 2 µg/mL; C. albicans MIC (C. albicans [2]; strain TWO7241): 16 µg/mL; C. albicans MIC (C. albicans [2]; strain TWO7243): 128 µg/mL
32 µg/mL (≈ 90.8 µM)	CN(C)CCCN1c2ccccc2Sc2ccc(C(F)(F)F)cc21 [Triflupromazine (4), Triflupromazine]	–	–
–	CCN(CC)CCCCN1c2ccccc2Oc2ccc(Cl)cc21 [Compound 12]	8 µg/mL	–

Compound	MIC (C. neoformans)	C. neoformans MIC (C. neoformans)	other results
CSc1ccc2c(c1)N(CCC1CCCCN1C)c1ccccc1S2 (stereo not shown) [Thioridazine, THZ (1), Thioridazine]	16 µg/mL (≈ 43.2 µM)	16 µg/mL	–
CN1CCN(CCCN2c3ccccc3Sc3ccc(C(F)(F)F)cc32)CC1 [Trifluoperazine, TFP (8), Trifluoperazine]	16 µg/mL (≈ 39.3 µM)	16 µg/mL	Effect on nuclear localization of Crz1 [1]: reduce nuclear localization of Crz1; MIC (C. albicans [3]): > 32 µg/mL; Effect on Crz1 localization ([4]; higher concentrations than 2 μg/mL, Fig. 1B): reduce localization significantly; Effect on Crz1 localization ([4]; sub-inhibitory concentration 2 μg/mL): fail to affect Crz1 localization
